In ChEMBL document CHEMBL5550120, “SuFEx-based chemical diversification for the systematic discovery of CRBN molecular glues” (Bioorg Med Chem, 2024):
Active and inactive are the calls of the source. No cut-off for these calls is given here.

What was measured:
[1] = target: T1, Protein cereblon/Eukaryotic peptide chain release factor GTP-binding subunit ERF3A (Homo sapiens, UniProt Q96SW2+P15170); assay: Molecular glue activity at CRBN/HiBiT-tagged GSPT1 in human MOLT-4 cells assessed as induction of GSPT1 degradation measured after 3 hrs by immunoblot analysis; format: cell-based
Target sequence in this assay (Q96SW2 whole entry): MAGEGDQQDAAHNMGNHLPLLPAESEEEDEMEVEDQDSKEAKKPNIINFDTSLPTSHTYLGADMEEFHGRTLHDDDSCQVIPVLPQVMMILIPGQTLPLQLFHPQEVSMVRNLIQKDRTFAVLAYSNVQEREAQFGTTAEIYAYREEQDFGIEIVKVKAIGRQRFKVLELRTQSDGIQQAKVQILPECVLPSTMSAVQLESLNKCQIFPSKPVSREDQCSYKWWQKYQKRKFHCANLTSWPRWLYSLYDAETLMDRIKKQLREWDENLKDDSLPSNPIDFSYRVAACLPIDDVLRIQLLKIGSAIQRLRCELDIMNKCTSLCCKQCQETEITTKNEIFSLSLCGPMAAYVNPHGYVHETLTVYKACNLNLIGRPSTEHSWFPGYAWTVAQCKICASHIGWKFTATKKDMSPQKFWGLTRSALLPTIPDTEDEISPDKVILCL
Target sequence in this assay (P15170 whole entry): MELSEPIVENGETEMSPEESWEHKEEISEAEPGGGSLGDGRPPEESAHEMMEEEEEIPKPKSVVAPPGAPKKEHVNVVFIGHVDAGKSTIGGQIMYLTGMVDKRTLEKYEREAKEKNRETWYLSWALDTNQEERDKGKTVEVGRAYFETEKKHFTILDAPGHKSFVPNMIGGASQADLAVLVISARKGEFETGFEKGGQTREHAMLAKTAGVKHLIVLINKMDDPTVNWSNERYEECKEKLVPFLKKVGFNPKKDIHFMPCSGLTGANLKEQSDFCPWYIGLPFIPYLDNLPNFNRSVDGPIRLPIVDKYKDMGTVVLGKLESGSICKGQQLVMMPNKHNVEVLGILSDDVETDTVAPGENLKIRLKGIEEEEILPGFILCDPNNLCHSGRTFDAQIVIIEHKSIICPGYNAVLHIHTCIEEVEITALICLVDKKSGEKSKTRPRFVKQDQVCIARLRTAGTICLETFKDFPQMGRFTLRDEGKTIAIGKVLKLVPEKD

MV4-11 [2] = assay: Downregulation of GSPT2 protein abundance in human MV4-11 cells at 3 uM measured after 3 hrs by proteomics analysis; format: functional, cell-based
[3] = target: DNA-binding protein Ikaros (Homo sapiens) (UniProt Q13422); assay: Induction of IKZF1 degradation in human MV4-11 cells at 3 uM measured after 3 hrs by immunoblot analysis; format: cell-based
[4] = target: T1, Protein cereblon/Eukaryotic peptide chain release factor GTP-binding subunit ERF3A; assay: Molecular glue activity at CRBN/HiBiT-tagged GSPT1 in human MV4-11 cells assessed as induction of GSPT1 degradation at 3 uM pretreated with MLN4924 at 1 uM for 1 hr followed by compound treatment and measured after 3 hrs by immunoblot analysis; format: cell-based
Target sequence in this assay (P15170 whole entry, looked up): as the sequence (P15170 whole entry) above
Target sequence in this assay (Q96SW2 whole entry, looked up): as the sequence (Q96SW2 whole entry) above

[5] = Selectivity index, ratio of EC50 for antiproliferative activity against human BE2C cells to EC50 for antiproliferative activity against human MV4-11 cells; format: functional
[6] = target: T1, Protein cereblon/Eukaryotic peptide chain release factor GTP-binding subunit ERF3A; assay: Molecular glue activity at CRBN/HiBiT-tagged GSPT1 in human MV4-11 cells assessed as induction of GSPT1 degradation at 3 uM pretreated with carfilzomib at 500 nM for 1 hr followed by compound treatment and measured after 3 hrs by immunoblot analysis; format: cell-based
Target sequence in this assay (P15170 whole entry, looked up): as the sequence (P15170 whole entry) above
Target sequence in this assay (Q96SW2 whole entry, looked up): as the sequence (Q96SW2 whole entry) above

MOLT-4 [7] = assay: Antiproliferative activity against CRBN depleted human MOLT-4 cells assessed as reduction in cell viability measured after 3 days by ATP-dependent luminescence assay; format: functional, cell-based; settings: time 3.0 day
MV4-11 [8] = assay: Downregulation of GSPT1 protein abundance in human MV4-11 cells at 3 uM measured after 3 hrs by proteomics analysis; format: functional, cell-based
[9] = target: T1, Protein cereblon/Eukaryotic peptide chain release factor GTP-binding subunit ERF3A; assay: Molecular glue activity at CRBN/HiBiT-tagged GSPT1 in human MOLT-4 cells assessed as induction of GSPT1 degradation at 3 uM pretreated with MLN4924 at 1 uM for 1 hr followed by compound treatment and measured after 3 hrs by immunoblot analysis; format: cell-based
Target sequence in this assay (P15170 whole entry, looked up): as the sequence (P15170 whole entry) above
Target sequence in this assay (Q96SW2 whole entry, looked up): as the sequence (Q96SW2 whole entry) above

BE(2)-C [10] = assay: Antiproliferative activity against human BE2C cells harboring GSPT1 G575N mutant assessed as reduction in cell viability measured after 3 days by ATP-dependent luminescence assay; format: functional, cell-based; settings: time 3.0 day
MV4-11 [11] = assay: Antiproliferative activity against human MV4-11 cells harboring GSPT1 G575N mutant assessed as reduction in cell viability measured after 3 days by ATP-dependent luminescence assay; format: functional, cell-based; settings: time 3.0 day
[12] = target: T1, Protein cereblon/Eukaryotic peptide chain release factor GTP-binding subunit ERF3A; assay: Molecular glue activity at CRBN/GSPT1 in human MOLT-4 cells harboring GSPT1 G575N mutant assessed as induction of GSPT1 degradation at 3 uM measured after 3 hrs by immunoblot analysis; format: cell-based
Target sequence in this assay (P15170 whole entry, looked up): as the sequence (P15170 whole entry) above
Target sequence in this assay (Q96SW2 whole entry, looked up): as the sequence (Q96SW2 whole entry) above

[13] = Selectivity index, ratio of EC50 for antiproliferative activity against human BE2C cells to EC50 for antiproliferative activity against human MOLT-4 cells; format: functional
[14] = target: DNA-binding protein Ikaros (Homo sapiens) (UniProt Q13422); assay: Induction of cHiBiT-tagged IKZF1 degradation in human MV4-11 cells; format: cell-based
MV4-11 [15] = assay: Antiproliferative activity against wild type human MV4-11 cells assessed as reduction in cell viability measured after 3 days by ATP-dependent luminescence assay; format: functional, cell-based; settings: MV4-11, 72 h
[16] = target: T1, Protein cereblon/Eukaryotic peptide chain release factor GTP-binding subunit ERF3A; assay: Molecular glue activity at CRBN/GSPT1 in CRBN depleted human BE2C cells assessed as induction of GSPT1 degradation at 3 uM measured after 3 hrs by immunoblot analysis; format: cell-based
Target sequence in this assay (P15170 whole entry, looked up): as the sequence (P15170 whole entry) above
Target sequence in this assay (Q96SW2 whole entry, looked up): as the sequence (Q96SW2 whole entry) above

[17] = target: T1, Protein cereblon/Eukaryotic peptide chain release factor GTP-binding subunit ERF3A; assay: Molecular glue activity at CRBN/HiBiT-tagged GSPT1 in human BE2C cells assessed as induction of GSPT1 degradation at 3 uM pretreated with carfilzomib at 500 nM for 1 hr followed by compound treatment and measured after 3 hrs by immunoblot analysis; format: cell-based
Target sequence in this assay (P15170 whole entry, looked up): as the sequence (P15170 whole entry) above
Target sequence in this assay (Q96SW2 whole entry, looked up): as the sequence (Q96SW2 whole entry) above

[18] = target: T1, Protein cereblon/Eukaryotic peptide chain release factor GTP-binding subunit ERF3A; assay: Molecular glue activity at CRBN/HiBiT-tagged GSPT1 in human MOLT-4 cells assessed as induction of GSPT1 degradation at 3 uM pretreated with carfilzomib at 500 nM for 1 hr followed by compound treatment and measured after 3 hrs by immunoblot analysis; format: cell-based
BE(2)-C [19] = assay: Antiproliferative activity against CRBN depleted human BE2C cells assessed as reduction in cell viability measured after 3 days by ATP-dependent luminescence assay; format: functional, cell-based; settings: time 3.0 day
[20] = target: T1, Protein cereblon/Eukaryotic peptide chain release factor GTP-binding subunit ERF3A; assay: Molecular glue activity at CRBN/GSPT1 in CRBN depleted human MV4-11 cells assessed as induction of GSPT1 degradation at 3 uM measured after 3 hrs by immunoblot analysis; format: cell-based
[21] = target: T1, Protein cereblon/Eukaryotic peptide chain release factor GTP-binding subunit ERF3A; assay: Molecular glue activity at CRBN/HiBiT-tagged GSPT1 in human MV4-11 cells assessed as induction of GSPT1 degradation at 3 uM pretreated with pomalidomide at 25 uM for 1 hr followed by compound treatment and measured after 3 hrs by immunoblot analysis; format: cell-based
[22] = target: T1, Protein cereblon/Eukaryotic peptide chain release factor GTP-binding subunit ERF3A; assay: Molecular glue activity at CRBN/HiBiT-tagged GSPT1 in human BE2C cells assessed as induction of GSPT1 degradation at 3 uM pretreated with MLN4924 at 1 uM for 1 hr followed by compound treatment and measured after 3 hrs by immunoblot analysis; format: cell-based
MOLT-4 [23] = assay: Antiproliferative activity against wild type human MOLT-4 cells assessed as reduction in cell viability measured after 3 days by ATP-dependent luminescence assay; format: functional, cell-based; settings: MOLT-4, 72 h
BE(2)-C [24] = assay: Antiproliferative activity against wild type human BE2C cells assessed as reduction in cell viability measured after 3 days by ATP-dependent luminescence assay; format: functional, cell-based; settings: 72 h
[25] = target: T1, Protein cereblon/Eukaryotic peptide chain release factor GTP-binding subunit ERF3A; assay: Molecular glue activity at CRBN/GSPT1 in human BE2C cells harboring GSPT1 G575N mutant assessed as induction of GSPT1 degradation at 3 uM measured after 3 hrs by immunoblot analysis; format: cell-based
[26] = target: T1, Protein cereblon/Eukaryotic peptide chain release factor GTP-binding subunit ERF3A; assay: Molecular glue activity at CRBN/GSPT1 in human MV4-11 cells harboring GSPT1 G575N mutant assessed as induction of GSPT1 degradation at 3 uM measured after 3 hrs by immunoblot analysis; format: cell-based
[27] = target: DNA-binding protein Ikaros (Homo sapiens) (UniProt Q13422); assay: Induction of IKZF1 degradation in human MV4-11 cells at 3 uM measured after 3 hrs by proteomics analysis; format: cell-based
MV4-11 [28] = assay: Antiproliferative activity against CRBN depleted human MV4-11 cells assessed as reduction in cell viability measured after 3 days by ATP-dependent luminescence assay; format: functional, cell-based; settings: time 3.0 day
[29] = target: T1, Protein cereblon/Eukaryotic peptide chain release factor GTP-binding subunit ERF3A; assay: Molecular glue activity at CRBN/HiBiT-tagged GSPT1 in wild type human BE2C cells assessed as induction of GSPT1 degradation measured after 3 hrs by immunoblot analysis; format: cell-based
Target sequence in this assay (Q96SW2 whole entry): as above
Target sequence in this assay (P15170 whole entry): as the sequence (P15170 whole entry) above

[30] = target: T1, Protein cereblon/Eukaryotic peptide chain release factor GTP-binding subunit ERF3A; assay: Molecular glue activity at CRBN/HiBiT-tagged GSPT1 in wild type human MV4-11 cells assessed as induction of GSPT1 degradation measured after 3 hrs by immunoblot analysis; format: cell-based
Target sequence in this assay (Q96SW2 whole entry): as the sequence (Q96SW2 whole entry) above
Target sequence in this assay (P15170 whole entry): as the sequence (P15170 whole entry) above

[31] = target: T1, Protein cereblon/Eukaryotic peptide chain release factor GTP-binding subunit ERF3A; assay: Molecular glue activity at CRBN/GSPT1 in CRBN depleted human MOLT-4 cells assessed as induction of GSPT1 degradation at 3 uM measured after 3 hrs by immunoblot analysis; format: cell-based
[32] = target: T1, Protein cereblon/Eukaryotic peptide chain release factor GTP-binding subunit ERF3A; assay: Molecular glue activity at CRBN/HiBiT-tagged GSPT1 in human MOLT-4 cells assessed as induction of GSPT1 degradation at 3 uM pretreated with pomalidomide at 25 uM for 1 hr followed by compound treatment and measured after 3 hrs by immunoblot analysis; format: cell-based
MOLT-4 [33] = assay: Antiproliferative activity against human MOLT-4 cells harboring GSPT1 G575N mutant assessed as reduction in cell viability measured after 3 days by ATP-dependent luminescence assay; format: functional, cell-based; settings: time 3.0 day
[34] = target: T1, Protein cereblon/Eukaryotic peptide chain release factor GTP-binding subunit ERF3A; assay: Molecular glue activity at CRBN/HiBiT-tagged GSPT1 in human BE2C cells assessed as induction of GSPT1 degradation at 3 uM pretreated with pomalidomide at 25 uM for 1 hr followed by compound treatment and measured after 3 hrs by immunoblot analysis; format: cell-based

Chain of DNA-binding protein Ikaros (Homo sapiens) (Q13422 whole entry): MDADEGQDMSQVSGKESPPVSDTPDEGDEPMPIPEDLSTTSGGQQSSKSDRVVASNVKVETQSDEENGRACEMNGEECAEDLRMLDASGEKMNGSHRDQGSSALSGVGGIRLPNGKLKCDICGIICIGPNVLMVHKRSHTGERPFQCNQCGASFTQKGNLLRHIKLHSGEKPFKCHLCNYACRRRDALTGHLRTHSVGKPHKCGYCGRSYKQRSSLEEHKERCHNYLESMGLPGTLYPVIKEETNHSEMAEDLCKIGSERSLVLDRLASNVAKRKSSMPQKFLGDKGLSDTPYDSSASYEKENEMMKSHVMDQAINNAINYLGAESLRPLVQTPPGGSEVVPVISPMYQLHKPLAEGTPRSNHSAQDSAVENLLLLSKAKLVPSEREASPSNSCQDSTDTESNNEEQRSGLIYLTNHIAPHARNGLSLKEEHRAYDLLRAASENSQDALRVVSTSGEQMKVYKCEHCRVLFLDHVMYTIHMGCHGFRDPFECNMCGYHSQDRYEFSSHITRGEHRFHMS

Structure (SMILES): CCCOc1ccccc1CNS(=O)(=O)Nc1ccc2c(c1)CN(C1CCC(=O)NC1=O)C2=O (centres undefined)
- DC50 [1]: 90 nM
- Activity (MV4-11 [2]): Active
- Activity [3]: inactive
- Activity [4]: inactive
- Ratio EC50 [5]: ~100
- Activity [6]: inactive
- Activity (MOLT-4 [7]): inactive
- Activity (MV4-11 [8]): Active
- Activity [9]: inactive
- Activity (BE(2)-C [10]): inactive
- Activity (MV4-11 [11]): inactive
- Activity [12]: inactive
- Ratio EC50 [13]: ~100
- Activity [14]: inactive
- EC50 (MV4-11 [15]): 80 nM
- Activity [16]: inactive
- Activity [17]: inactive
- Activity [18]: inactive
- Activity (BE(2)-C [19]): inactive
- Activity [20]: inactive
- Activity [21]: inactive
- Activity [22]: inactive
- EC50 (MOLT-4 [23]): 110 nM
- EC50 (BE(2)-C [24]): 18000 nM
- Activity [25]: inactive
- Activity [26]: inactive
- Activity [27]: inactive
- Activity (MV4-11 [28]): inactive
- DC50 [29]: 7000 nM
- DC50 [30]: 60 nM
- Activity [31]: inactive
- Activity [32]: inactive
- Activity (MOLT-4 [33]): inactive
- Activity [34]: inactive
